What follows are compounds tested on Bovine cardiac myofibrils (assay: In vitro model of dose-dependent myofibril ATPase modulation (AC1.4, pyruvate kinase/lactate dehydrogenase-coupled ATPase assay at pCa25)). Conditions: concentration at which ATPase activity was 1.4-fold higher than the bottom of the dose curve, mean of a minimum of two independent tests.
Type: biochemical
Procedure, shortened: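 ATP turnover tracked as NADH absorbance loss at 340 nm, coupled via pyruvate kinase/lactate dehydrogenase, with 1 mM ATP, 2 mM MgCl2 and 12 mM K-PIPES at pH 6.80 (22° C) under EGTA/CaCl2 calcium buffering. Substrate was detergent-treated bovine cardiac myofibrils; 4-parameter curve fit, AC1.4 averaged over at least two runs.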

Row | SMILES | AC1.4
1 | N#CC1CC(S(=O)(=O)c2cccc(C(=O)N3CCC[C@@H]3C(=O)NCc3ccc(C(F)(F)F)nc3)c2)C1 (stereo partly drawn) [Example 507, (R)-1-(3-((3-cyanocyclobutyl)sulfonyl)benzoyl)-N-((6-(trifluoromethyl)pyridin-3-yl)methyl)pyrrolidine-2-carboxamide] | 2.38 µM
2 | Cc1ccc(F)cc1CNC(=O)[C@H]1CCCN1C(=O)[C@H]1CCCN(S(=O)(=O)N2CC(C#N)C2)C1 [Example 508, 1-(((3S)-1-((3-cyano-1-azetidinyl)sulfonyl)-3-piperidinyl)carbonyl)-N-(5-fluoro-2-methylbenzyl)-D-prolinamide] | 2.3805 µM
3 | CCC1(O)CN(S(=O)(=O)N2CCC[C@H](C(=O)N3CCC[C@@H]3C(=O)NCc3ccc(C(F)(F)F)cc3F)C2)C1 [Example 509, 1-(((3S)-1-((3-ethyl-3-hydroxy-1-azetidinyl)sulfonyl)-3-piperidinyl)carbonyl)-N-(2-fluoro-4-(trifluoromethyl)benzyl)-D-prolinamide] | 2.3995 µM
4 | C[C@@H](NC(=O)[C@H]1CCCN1C(=O)[C@@H]1CN(S(=O)(=O)N2CC(C#N)C2)CCN1)c1ccc(Cl)cc1 [Example 511, N-((1R)-1-(4-chlorophenyl)ethyl)-1-(((2S)-4-((3-cyano-1-azetidinyl)sulfonyl)-2-piperazinyl)carbonyl)-D-prolinamide] | 2.4195 µM
5 | N#CC1CN(S(=O)(=O)N2CCCC(F)(C(=O)N3CCC[C@@H]3C(=O)NCc3ccc(C(F)(F)F)cc3)C2)C1 (stereo partly drawn) [Example 514, (2R)-1-(1-((3-cyanoazetidin-1-yl)sulfonyl)-3-fluoropiperidine-3-carbonyl)-N-(4-(trifluoromethyl)benzyl)pyrrolidine-2-carboxamide] | 2.433 µM
6 | N#CC1CN(S(=O)(=O)N2CCC[C@H](C(=O)N3CCC[C@@H]3C(=O)NCc3ncc(C(F)(F)F)cc3F)C2)C1 [Example 515, 1-(((3S)-1-((3-cyano-1-azetidinyl)sulfonyl)-3-piperidinyl)carbonyl)-N-((3-fluoro-5-(trifluoromethyl)-2-pyridinyl)methyl)-D-prolinamide] | 2.441 µM
7 | N#CC1CN(S(=O)(=O)N2CCC[C@H](C(=O)N3CCC[C@@H]3C(=O)NCc3cccc(F)c3F)C2)C1 [Example 516, 1-(((3S)-1-((3-cyano-1-azetidinyl)sulfonyl)-3-piperidinyl)carbonyl)-N-(2,3-difluorobenzyl)-D-prolinamide] | 2.446 µM
8 | N#CC1CN(S(=O)(=O)N2CCO[C@H](C(=O)N3CCC[C@@H]3C(=O)NCc3cc(F)cc(F)c3)C2)C1 [Example 517, 1-(((2S)-4-((3-cyano-1-azetidinyl)sulfonyl)-2-morpholinyl)carbonyl)-N-(3,5-difluorobenzyl)-D-prolinamide] | 2.4485 µM
9 | COC(=O)C1CC(S(=O)(=O)N2CCC[C@H](C(=O)N3CCC[C@@H]3C(=O)NCc3ccc(C(F)(F)F)cc3)C2)C1 (stereo partly drawn) [Example 518, methyl3-(((S)-3-((R)-2-((4-(trifluoromethyl)benzyl)carbamoyl)pyrrolidine-1-carbonyl)piperidin-1-yl)sulfonyl)cyclobutanecarboxylate] | 2.457 µM
10 | CN1CC(C(NC(=O)[C@H]2C[C@H]3C[C@H]3N2C(=O)c2cccc(S(C)(=O)=O)c2)c2ccc(C(F)(F)F)cc2F)CC1=O (stereo partly drawn) [Example 519, (1R,3R,5R)-N-((2-fluoro-4-(trifluoromethyl)phenyl)(1-methyl-5-oxopyrrolidin-3-yl)methyl)-2-(3-(methylsulfonyl)benzoyl)-2-azabicyclo[3.1.0]hexane-3-carboxamide] | 2.367 µM
11 | Cc1ccc(CNC(=O)[C@H]2CCCN2C(=O)c2cccc(S(=O)(=O)N3CC(C#N)C3)c2)nc1 [Example 520, 1-(3-((3-cyano-1-azetidinyl)sulfonyl)benzoyl)-N-((5-methyl-2-pyridinyl)methyl)-D-prolinamide] | 2.5075 µM
12 | N#CC1CN(S(=O)(=O)N2CCC[C@H](C(=O)N3CCC[C@@H]3C(=O)NC(c3cc(F)ccc3F)C(F)F)C2)C1 (stereo partly drawn) [Example 524, (2R)-1-((S)-1-((3-cyanoazetidin-1-yl)sulfonyl)piperidine-3-carbonyl)-N-(1-(2,5-difluorophenyl)-2,2-difluoroethyl)pyrrolidine-2-carboxamide] | 2.583 µM

Now from value to compound:

Row | AC1.4 | SMILES
13 | 2.3635 µM | CC(C)c1cc(C(=O)N2[C@@H](C(=O)N[C@@H](c3cc(F)c(Cl)cc3F)C3COC3)C[C@H]3C[C@H]32)ccn1 [Example 504, (1R,3R,5R)-N-((R)-(4-chloro-2,5-difluorophenyl)(3-oxetanyl)methyl)-2-((2-(2-propanyl)-4-pyridinyl)carbonyl)-2-azabicyclo[3.1.0]hexane-3-carboxamide]
14 | 2.1945 µM | CS(=O)(=O)c1ccc(C(=O)N2CCC[C@@H]2C(=O)N[C@@H](c2ccc(C(F)(F)F)cc2F)C2CC2)cn1 [Example 505, N-((R)-cyclopropyl(2-fluoro-4-(trifluoromethyl)phenyl)methyl)-1-((6-(methylsulfonyl)-3-pyridinyl)carbonyl)-D-prolinamidev]
15 | 2.23 µM | CS(=O)(=O)c1cccc(C(=O)N2C[C@H](O)C[C@@H]2C(=O)N[C@@H](c2ccc(C(F)(F)F)cc2F)C2CC2)c1 [Example 506, (4R)-N-((R)-cyclopropyl(2-fluoro-4-(trifluoromethyl)phenyl)methyl)-4-hydroxy-1-(3-(methylsulfonyl)benzoyl)-D-prolinamide]
16 | 2.2505 µM | CS(=O)(=O)c1cc(C(=O)N2C[C@@H](F)C[C@@H]2C(=O)N[C@@H](c2cc(F)c(Cl)cc2F)C2CC2)ccn1 [Example 510, (4S)-N-((R)-(4-chloro-2,5-difluorophenyl)(cyclopropyl)methyl)-4-fluoro-1-((2-(methylsulfonyl)-4-pyridinyl)carbonyl)-D-prolinamide]
17 | 2.252 µM | CS(=O)(=O)c1cncc(C(=O)N2C[C@H]3C[C@H]3[C@@H]2C(=O)N[C@@H](c2cc(F)c(Cl)cc2F)C2CC2)c1 [Example 512, (1R,2R,5S)-N-((R)-(4-chloro-2,5-difluorophenyl)(cyclopropyl)methyl)-3-((5-(methylsulfonyl)-3-pyridinyl)carbonyl)-3-azabicyclo[3.1.0]hexane-2-carboxamide]
18 | 2.3655 µM | CCS(=O)(=O)c1cccc(C(=O)N2[C@@H](C(=O)N[C@H](C)c3cc(F)c(Cl)cc3F)C[C@H]3C[C@H]32)c1 [Example 513, (1R,3R,5R)-N-((1R)-1-(4-chloro-2,5-difluorophenyl)ethyl)-2-(3-(ethylsulfonyl)benzoyl)-2-azabicyclo[3.1.0]hexane-3-carboxamide]
19 | 2.551 µM | CCNc1ccccc1C(=O)N1CCC[C@@H]1C(=O)N[C@@H](c1ccc(C(F)(F)F)cc1F)C1CC1 [Example 521, N-((R)-cyclopropyl(2-fluoro-4-(trifluoromethyl)phenyl)methyl)-1-(2-(ethylamino)benzoyl)-D-prolinamide]
20 | 2.4145 µM | CCS(=O)(=O)c1cccc(C(=O)N2[C@@H](C(=O)N[C@@H](c3ccc(C(F)(F)F)cc3)C3(O)CCC3)C[C@H]3C[C@H]32)c1 [Example 522, (1R,3R,5R)-2-(3-(ethylsulfonyl)benzoyl)-N-((S)-(1-hydroxycyclobutyl)(4-(trifluoromethyl)phenyl)methyl)-2-azabicyclo[3.1.0]hexane-3-carboxamide]
21 | 2.582 µM | O=C(N[C@@H](c1ccc(C(F)(F)F)cc1F)C1CC1)[C@H]1CCCN1C(=O)c1cccc(C(O)(O)C(F)(F)F)c1 [Example 523, (R)—N—((R)-cyclopropyl(2-fluoro-4-(trifluoromethyl)phenyl)methyl)-1-(3-(2,2,2-trifluoro-1,1-dihydroxyethyl)benzoyl)pyrrolidine-2-carboxamide]
22 | 2.4285 µM | CS(=O)(=O)c1cccc(C(=O)N2CCC(F)(F)CC2C(=O)N[C@@H](c2ccc(C(F)(F)F)cc2F)C2CC2)c1 (stereo partly drawn) [Example 525, N-((R)-cyclopropyl(2-fluoro-4-(trifluoromethyl)phenyl)methyl)-4,4-difluoro-1-(3-(methylsulfonyl)benzoyl)piperidine-2-carboxamide]
23 | 2.5923 µM | CS(=O)(=O)c1ccnc(C(=O)N2CCC[C@@H]2C(=O)N[C@@H](c2ccc(C(F)(F)F)cc2F)C2CC2)c1 [Example 526, N-((R)-cyclopropyl(2-fluoro-4-(trifluoromethyl)phenyl)methyl)-1-((4-(methylsulfonyl)-2-pyridinyl)carbonyl)-D-prolinamide]
24 | 2.5985 µM | O=C(N[C@@H](c1ccc(C(F)(F)F)cc1F)C1COC1)[C@H]1C[C@H]2C[C@H]2N1C(=O)c1cncc(C(F)(F)F)c1 [Example 527, (1R,3R,5R)-N-((R)-(2-fluoro-4-(trifluoromethyl)phenyl)(3-oxetanyl)methyl)-2-((5-(trifluoromethyl)-3-pyridinyl)carbonyl)-2-azabicyclo[3.1.0]hexane-3-carboxamide]
25 | 2.4294 µM | CS(=O)(=O)c1cccc(C(=O)N2C[C@@H](F)C[C@@H]2C(=O)N[C@@H](c2ccc(C(F)(F)F)cc2F)C2COC2)c1 [Example 528, (4S)-4-fluoro-N-((R)-(2-fluoro-4-(trifluoromethyl)phenyl)(3-oxetanyl)methyl)-1-(3-(methylsulfonyl)benzoyl)-D-prolinamide]
26 | 2.4895 µM | O=C(N[C@@H](c1cc(F)c(Cl)cc1F)C1COC1)[C@H]1C[C@H]2C[C@H]2N1C(=O)c1cccc(C(F)(F)F)n1 [Example 529, (1R,3R,5R)-N-((R)-(4-chloro-2,5-difluorophenyl)(3-oxetanyl)methyl)-2-((6-(trifluoromethyl)-2-pyridinyl)carbonyl)-2-azabicyclo[3.1.0]hexane-3-carboxamide]
27 | 2.614 µM | O=C(N[C@@H](c1ccc(C(F)(F)F)cc1F)C1CC1)[C@H]1CCCN1C(=O)c1cccc(C2CCC2)c1 [Example 530, 1-(3-cyclobutylbenzoyl)-N-((R)-cyclopropyl(2-fluoro-4-(trifluoromethyl)phenyl)methyl)-D-prolinamide]

Reference: patent US11780826B2 (Amgen Inc., priority 2017, dated 2023)
